From PMC11284600, “Many human pharmaceuticals are weak inhibitors of the cytochrome P450 system in rainbow trout (Oncorhynchus mykiss) liver S9 fractions” (Frontiers in Toxicology, 2024)
Structures can show the parent of a compound that is named as a salt. Where two headings read alike, the source gives them in different places.

Experiments:
[1] = parameters: method as in PubChem; settings: (e) empirical; ref PubChem; cited from earlier work
[2] = Unbound fraction in RT-S9 by rapid equilibrium dialysis; assay type: in vitro ADME, rainbow trout (Oncorhynchus mykiss); settings: 10 µM test substance, 1 mg/mL RT-S9, pH 7.8, 11°C, n = 3, read-out: Unbound fraction (fU,RT-S9)
Protocol: The unbound (free) fractions of the test substances in RT-S9 (fU,RT-S9) were determined using rapid equilibrium dialysis assay (RED, Thermo Fisher Scientific), which exploits two-compartment inserts separated by a dialysis membrane with a molecular weight cut-off of 8,000 Da. In the RED assay, each test pharmaceutical (10 μM) was incubated in triplicate with RT-S9 (1 mg/mL) in 50 mM potassium phosphate buffer (pH 7.8) in a total volume of 300 µL on one side of the membrane (protein-containing chamber), and 350 μL of the plain phosphate buffer on the other side (protein-free chamber). To reach equilibrium, the samples were incubated on an orbital shaker (C25KC Incubator shaker, New Brunswick Scientific, 120 rpm) at 11°C for 4 h. Next, 50 µL aliquots were collected from both chambers separately and diluted by adding 50 µL of the plain buffer (to the protein-containing sample) or 50 μL of 1 mg/mL RT-S9 in the buffer (to the protein-free sample). Finally, the RT-S9 protein was precipitated by the addition of acetonitrile (+200 μL) to both samples separately, followed by incubation on ice for 30 min and centrifugation (16100 g, 15 min). The test substance concentrations in the supernatants of both samples were determined using liquid chromatography. The instrumentation and the analytical methods used for chromatographic analyses are described in detail in the Supplementary Table S2. The unbound fractions of the test substances in RT-S9 (fU,RT-S9) were calculated according to Eq. 3: fU,RT−S9=1− PC−PF/PC (3) where [PC] and [PF] are the test substance concentrations in the samples collected from protein-containing and protein-free chambers, respectively. To account for the test substance’s binding to the RT-S9, the nominal IC50 values were corrected for unbound fraction (fU,RT-S9) according to Eq. 4: Unbound IC50=Nominal IC50×fU,RT−S9 (4)

Human CYP3A = settings: cited from earlier work; for Human CYP3A interactions: substrate status: ref Drugbank unless otherwise stated (Dragovic et al., 2013; Niwa et al., 2005)
[3] = system: CYP1A-like ethoxyresorufin O-deethylase (EROD) activity; experiment: in vitro; settings: both, Christophersen, Bornhoeved, rainbow trout (Oncorhynchus mykiss); for inhibition at 10 min: pH 7.8
Protocol: (§1) Commercially available rainbow trout (O. mykiss) liver S9 fractions were used as the enzyme source for the in vitro P450 inhibition assays (RTL-S9, total protein concentration 20 mg/mL, Primacyt Cell Culture Technology GmbH).
(§2) The inhibitory impacts of the test substances toward the rainbow trout liver P450 system in vitro were assessed based on EROD and BFCOD as the marker reactions for CYP1A- and CYP3A-like isoenzyme activities, respectively. […] In this study, the EROD (CYP1A) and BFCOD (CYP3A) activities were determined using 0.5 mg/mL RT-S9 (total protein) concentration and 1 or 2 mM NADPH, respectively. […] All incubations were performed in duplicate in a total volume of 100 µL of potassium phosphate buffer (0.1 M, pH 7.8), at 11°C ± 1°C on a thermostated orbital shaker (LLG Labware). The reactions were terminated by the addition of 37.5 μL of the quenching solution (0.5 M Trizma base/acetonitrile 20:80, v/v). […] The quantitation of the metabolites (resorufin or HFC) was based on linear regression of the respective standards prepared in the potassium phosphate buffer. Negative control incubations were performed separately without the marker substrate, without cofactors, and without RT-S9 to ensure that the detected fluorescence signals arise from the metabolic conversion of the marker substrates (ER or BFC) into their respective metabolites (resorufin or HFC, respectively).
(§3) In this study, the preincubation was performed using three different protocols A-C (Table 2). In the first protocol, the test substance (each separately at six different concentrations between 0.01 and 500 µM) and RT-S9 were preincubated without any cofactors, and the marker reaction was initiated by the addition of the marker substrate (ER or BFC) and NADPH (Protocol A). This enabled the determination of the inhibitory impact of the parent form of the test substance on the respective marker activity. In the second protocol, the test substance and RT-S9 were preincubated together with NADPH, and the marker reaction was initiated by the addition of the marker substrate (Protocol B). In this manner, the test substance could undergo P450 metabolism already during the preincubation step, which may reduce its concentration and thus the inhibitory impact toward the marker reactions, or result in the formation of reactive or inhibitory metabolites, which typically increases the inhibitory impact compared with the parent form (Protocol A). […] In this manner, the test substance could undergo both P450 and phase II metabolism already during the preincubation step, which may likewise reduce its concentration and inhibitory impact toward the marker reactions, and even help eliminate the possible reactive metabolites via glutathione conjugation. […] Additionally, positive control incubations of the marker substrates (ER or BFC) without the test substance (zero inhibitor concentration) were included in each series to determine the basal EROD or BFCOD activity in RT-S9.
(§4) The residual solvent concentration was kept constant at all inhibitor concentrations, including zero, to eliminate its impact on the IC50 concentrations derived from the empirical data. The IC50 shifts for Protocols B and C were calculated according to Eq. 2: IC50 shift=IC50,Protocol A/IC50,Protocol B or Protocol C (2)
(§5) In this manner, the impact of the test substance’s own metabolism (during the preincubation step) on the inhibitory impact could be evaluated.

[4] = target: T1, CYP3A-like BFCOD activity (Oncorhynchus mykiss, UniProt O42563); experiment: BFCOD inhibition in RT-S9 (IC50 shift assay); settings: both, Christophersen, Bornhoeved, rainbow trout (Oncorhynchus mykiss)
T1 sequence (O42563 1-518): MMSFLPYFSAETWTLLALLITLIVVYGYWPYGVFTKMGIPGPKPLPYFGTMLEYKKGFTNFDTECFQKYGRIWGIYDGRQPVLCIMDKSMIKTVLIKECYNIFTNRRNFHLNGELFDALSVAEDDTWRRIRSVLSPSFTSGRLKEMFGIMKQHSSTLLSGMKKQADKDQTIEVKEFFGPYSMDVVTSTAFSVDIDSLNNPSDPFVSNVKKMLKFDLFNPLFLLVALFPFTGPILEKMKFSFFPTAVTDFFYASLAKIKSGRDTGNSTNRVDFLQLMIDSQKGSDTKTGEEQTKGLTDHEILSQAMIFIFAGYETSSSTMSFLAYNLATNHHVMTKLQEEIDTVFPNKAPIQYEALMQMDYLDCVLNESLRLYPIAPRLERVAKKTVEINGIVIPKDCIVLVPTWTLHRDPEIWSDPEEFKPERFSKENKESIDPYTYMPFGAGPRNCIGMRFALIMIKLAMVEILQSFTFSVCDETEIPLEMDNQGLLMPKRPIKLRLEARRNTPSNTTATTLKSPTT
Protocol: as §1, §2, §3, §4, §5

[5] = target: T2, CYP3A-like 7-benzyloxy-4-trifluoromethylcoumarin O-debenzylase (BFCOD) activity in rainbow trout liver S9 fractions (Oncorhynchus mykiss, UniProt O42563); experiment: BFCOD inhibition in RT-S9 (IC50 shift assay); settings: within the tested concentration range
T2 sequence (O42563 1-518): T1 sequence (O42563 1-518)
Protocol: as §1, §2, §3, §4, §5

[6] = system: CYP1A-like ethoxyresorufin O-deethylase (EROD) activity in rainbow trout liver S9 fractions; experiment: EROD inhibition in RT-S9 (IC50 shift assay)
Protocol: as §1, §2, §3, §4, §5

Human CYP1A = settings: ref Drugbank unless otherwise stated (Dragovic et al., 2013; Conard and Ober 1984; Niwa et al., 2005); cited from earlier work
CYP1A-like EROD activity = experiment: in vitro; settings: both, Christophersen, Bornhoeved, rainbow trout (Oncorhynchus mykiss)
Protocol: as §1, §2, §3, §4, §5

[7] = rainbow trout liver S9 fractions (RT-S9)
[8] = pH 7.8, EROD inhibition in RT-S9, Nominal IC50
[9] = pH 7.8, EROD inhibition in RT-S9, Unbound IC50
[10] = s9, pH 7.8, BFCOD inhibition in RT-S9, Nominal IC50, Protocol B: 30 min preincubation w/NADPH (2 mM)
[11] = s9, pH 7.8, BFCOD inhibition in RT-S9, Nominal IC50, Protocol C: 30 min preincubation w/all cofactors (NADPH, UDPGA, PAPS, glutathione)

CC(C)c1c(C(=O)Nc2ccccc2)c(-c2ccccc2)c(-c2ccc(F)cc2)n1CC[C@@H](O)C[C@@H](O)CC(=O)O [Atorvastatin, atorvastatin calcium trihydrate]
LogKOW [1]: 6.36 (e)

CN1CCCC(n2nc(Cc3ccc(Cl)cc3)c3ccccc3c2=O)CC1 (stereo not drawn) [Azelastine, azelastine hydrochloride]
fraction unbound at 4 h, 10 µM [2, 7]: 0.14 ± 0.01 | Human CYP3A interactions: inhibitor status (Human CYP3A; ref Drugbank unless otherwise stated (Cohen et al., 2000; Guo et al., 1997; Niwa et al., 2005)): Inhibitor (m) | inhibition at 10 min [3]: > 50% | IC50 at 10 min [3, 8]: 28 ± 2 µM | IC50 at 10 min [3, 9]: 3.8 ± 0.5 µM | IC50 at 20 min ([4]; s9, pH 7.8): > 100 µM | inhibition at 20 min ([4]; s9, pH 7.8): ≤ 50% | IC50 at 20 min [4, 10]: > 100 µM | IC50 at 20 min [4, 11]: > 100 µM

CCNC(=O)CCC/C=C\C[C@@H]1[C@@H](/C=C/[C@@H](O)CCc2ccccc2)[C@H](O)C[C@@H]1O [Bimatoprost, bimatoprost]
LogKOW [1]: 3.2 (e) | Human CYP3A interactions: substrate status (Human CYP3A): Substrate | BFCOD inhibition in RT-S9 (in words) [5]: did not significantly inhibit

Cc1ncsc1CCCl [Clomethiazole, clomethiazole hydrochloride]
fraction unbound at 4 h, 10 µM ([2]; rainbow trout (Oncorhynchus mykiss)): > 0.9 | Human CYP3A interactions: substrate status (Human CYP3A): Substrate | EROD inhibition in RT-S9 (in words) ([6]; within the tested concentration range): did not significantly inhibit | EROD inhibition in RT-S9 (in words) ([6]; within the tested concentration range, listed as Chlomethiazole): no significant EROD inhibition | BFCOD inhibition in RT-S9 (in words) [5]: did not significantly inhibit

CN1CCN(C2=Nc3cc(Cl)ccc3Nc3ccccc32)CC1 [Clozapine, clozapine]
LogKOW [1]: 3.23 (e) | fraction unbound at 4 h, 10 µM [2, 7]: 0.21 ± 0.05 | Human CYP1A interactions: substrate status (Human CYP1A): Substrate | inhibition at 10 min [3]: > 50% | IC50 at 10 min [3, 8]: 46 ± 9 µM | IC50 at 10 min [3, 9]: ~10 µM | inhibition at 20 min ([4]; s9, pH 7.8): ≤ 50% | IC50 at 20 min ([4]; s9, pH 7.8, BFCOD inhibition in RT-S9, Nominal IC50, Protocol A: 30 min preincubation without cofactors, extrapolated): > 100 µM | IC50 at 20 min [4, 10]: > 100 µM | IC50 at 20 min [4, 11]: > 100 µM | IC50 at 20 min ([4]; s9, pH 7.8, BFCOD inhibition in RT-S9, Unbound IC50, nominal IC50 of Protocol A × fU,RT-S9 (Eq. 4)): 10 to 30 µM

Clc1ccc2c(c1)CCc1cccnc1C2=C1CCNCC1 [Desloratadine, desloratadine]
fraction unbound at 4 h, 10 µM [2, 7]: 0.15 ± 0.03

CCN(CC)C(=S)SSC(=S)N(CC)CC [Disulfiram, disulfiram]
LogKOW [1]: 3.88 (e) | fraction unbound at 4 h, 10 µM ([2]; rainbow trout (Oncorhynchus mykiss), rainbow trout liver S9 fractions (RT-S9)): > 0.9 | fraction unbound at 4 h, 10 µM [2, 7]: 0.91 ± 0.42

COc1ccc2nc([S@@+]([O-])Cc3ncc(C)c(OC)c3C)[nH]c2c1 [Esomeprazole, esomeprazole magnesium hydrate]
fraction unbound at 4 h, 10 µM [2, 7]: 0.36 ± 0.08 | Human CYP3A interactions: substrate status (Human CYP3A): Substrate | IC50 shift at 10 min (CYP1A-like EROD activity; s9, pH 7.8, EROD inhibition in RT-S9, IC50 shift (A/B)): 2.3 ± 0.7 | IC50 shift at 10 min (CYP1A-like EROD activity; s9, pH 7.8, EROD inhibition in RT-S9, IC50 shift (A/C)): 1.7 | inhibition at 10 min [3]: > 50% | IC50 at 10 min [3, 9]: 3 ± 0.8 µM | IC50 at 20 min ([4]; s9, pH 7.8): > 100 µM | inhibition at 20 min ([4]; s9, pH 7.8): ≤ 50% | IC50 shift at 20 min ([4]; s9, pH 7.8, BFCOD inhibition in RT-S9, IC50 shift (A/B), IC50 Protocol A / IC50 Protocol B, TDI if ≥1.5): 1.2 ± 0.2 | IC50 shift at 20 min ([4]; s9, pH 7.8, BFCOD inhibition in RT-S9, IC50 shift (A/C), IC50 Protocol A / IC50 Protocol C): 0.8 | IC50 at 20 min [4, 10]: > 100 µM | IC50 at 20 min [4, 11]: > 100 µM

Cc1ccccc1C(OCCN(C)C)c1ccccc1 (stereo not drawn) [Orphenadrine, orphenadrine citrate]
LogKOW [1]: 3.77 (e) | fraction unbound at 4 h, 10 µM [2, 7]: 0.27 ± 0.05

COc1cc2nc(N3CCN(C(=O)c4ccco4)CC3)nc(N)c2cc1OC [Prazosin, prazosin hydrochloride]
EROD inhibition in RT-S9 (in words) [6]: inhibited selectively only EROD activity | inhibition at 10 min [3]: > 50% | IC50 at 10 min [3, 8]: 21 ± 2 µM | IC50 at 20 min ([4]; s9, pH 7.8): > 25 µM

OCCOCCN1CCN(C2=Nc3ccccc3Sc3ccccc32)CC1 [Quetiapine, quetiapine hemihumarate]
LogKOW [1]: 2.81 (e) | fraction unbound at 4 h, 10 µM [2, 7]: 0.24 ± 0.06

CCN1CCCC1CNC(=O)c1cc(S(N)(=O)=O)ccc1OC (stereo not drawn) [Sulpiride, sulpiride]
BFCOD inhibition in RT-S9 (in words) [5]: did not significantly inhibit
